Assay results from patent US10954253B2, “1,2-dihydro-3H-pyrazolo[3,4-d]pyrimidin-3-one derivative as Wee1 inhibitor” (SHIJIAZHUANG SAGACITY NEW DRUG DEVELOPMENT CO., LTD., priority 2017, dated 2021).

Legend:
Wee1 = Wee1 (Homo sapiens (Human), UniProt P30291); assay: In vitro enzymatic inhibitory activity (33P-ATP filter-binding kinase assay, MBP substrate); assay type: biochemical; conditions: Wee-1 150 nM, MBP 20 μM
Procedure: The compounds of the present invention for experimental use were all self-prepared, and their chemical names and structural formulas are shown in the preparation embodiments of the respective compounds. The experimental tests were carried out in Reaction Biology Corporation, USA, and the experimental results were provided by the company. Basic reaction buffer: 20 mM hydroxyethylpiperazine ethanesulfuric acid (pH 7.5), 10 mM magnesium chloride, 1 mM EGTA, 0.02% Brij35, 0.02 mg/mL bovine serum albumin, 0.1 mM Na3VO4, 2 mM DTT, 1% DMSO Enzyme: Wee-1 concentration is 150 nM Matrix: MBP concentration is 20 μM The tested compound was formulated into a 5 mM solution with 100% DMSO, and a 10 points 3-fold gradient dilution was performed with DMSO through an automated pipetting station epMotion 5070. 1. Fresh matrix configuration reaction buffer was prepared; 2. The Wee-1 was added into the matrix solution and shaked gently; 3. DMSO solution of the compound were added into the kinase reaction mixture using an acoustic technique (Echo 550; nanoliter range) and incubated for 20 minutes at room temperature; 4. ^33P-ATP (specific activity, 10 μCi/μL) was added into the reaction mixture to stimulate the reaction; 5. Incubated for 2 hours at room temperature; 6. Kinase activity was detected by filter-binding method.

[1] = Pharmacokinetic evaluation in BALB/c mice after intravenous and oral administration; assay type: in vivo; conditions: mouse, plasma, BALB/c mice (female), single intravenous injection and oral administration
Procedure: Experimental objective: pharmacokinetics evaluation of the compound in BALB/c nude mice.
The rodent pharmacological characteristics of the compound after intravenous administration and oral administration were tested by a standard protocol, the candidate compound in the experiment was formulated into a clear solution, and the mice were administered by a single intravenous injection and oral administration. The intravenous and oral vehicles are a certain proportion of aqueous hydroxypropyl 3-cyclodextrin or physiological saline solution.

[2] = Tissue distribution (PK) in BALB/c nude mice bearing human colon cancer LoVo xenografts; assay type: in vivo; conditions: mouse, LoVo xenograft mice, oral 40 mg/kg twice a day for three weeks, after last administration
Procedure: (1) In vivo PD study of the compound used on tumors of human colon cancer LoVo cells subcutaneously xenografted to BALB/c nude mice model
Experimental method: the experimental animals used were BALB/c nude mice (provided by Shanghai Xipuer-Beikai Experimental animal CO., Ltd), 6-8 weeks old, weighting 18-22 g.
Human colon cancer LoVo cells, monolayer-cultured in vitro, culturing condition was Ham's F-12 medium supplemented with 10% fetal bovine serum, 100 U/mL penicillin, 100 μg/mL streptomycin and 2 mM glutamine, 37° C., 5% CO2. Conventional digestion treatment passage was done with trypsin-EDTA twice a week. When the cell saturation reached 80%-90%, the cells were collected, counted, and inoculated. 0.1 mL (10×106) of LoVo cells were subcutaneously inoculated into the right back of each nude mouse, and group administration was started when the average tumor volume reached 213 mm^3. The administration mode was oral administration, 40 mg/kg twice a day for three consecutive weeks.
After the last administration of the experiment, a portion of plasma, tumor, intestine, brain, lung, liver and pancreas was collected from the number 1-2 animals after 0.5 h of administration, and quick-froze for PK detection; a portion of plasma, tumor, intestine, brain, lung, liver and pancreas was collected from the number 3-4 animals after 2 h of administration, and quick-froze for PK detection; a portion of plasma, tumor, intestine, brain, lung, liver and pancreas was collected from the number 5-6 animals after 8 h of administration, and quick-froze for PK detection. The tumor, intestine, brain, lung, liver and pancreas were weighted separately and added 9 times volumes of homogenate MeOH/15 mM PBS (1:2, v:v) for homogenization. 20 μL sample was added into 300 μL of the stop buffer including internal standard for protein precipitation, and shaked to mix well. The mixture was centrifuged at 13,000 rpm for 10 minutes at 20-25° C., and 3 μL of the supernatant was taken for LCMS analysis.

Wee1, sequence (P30291 whole entry): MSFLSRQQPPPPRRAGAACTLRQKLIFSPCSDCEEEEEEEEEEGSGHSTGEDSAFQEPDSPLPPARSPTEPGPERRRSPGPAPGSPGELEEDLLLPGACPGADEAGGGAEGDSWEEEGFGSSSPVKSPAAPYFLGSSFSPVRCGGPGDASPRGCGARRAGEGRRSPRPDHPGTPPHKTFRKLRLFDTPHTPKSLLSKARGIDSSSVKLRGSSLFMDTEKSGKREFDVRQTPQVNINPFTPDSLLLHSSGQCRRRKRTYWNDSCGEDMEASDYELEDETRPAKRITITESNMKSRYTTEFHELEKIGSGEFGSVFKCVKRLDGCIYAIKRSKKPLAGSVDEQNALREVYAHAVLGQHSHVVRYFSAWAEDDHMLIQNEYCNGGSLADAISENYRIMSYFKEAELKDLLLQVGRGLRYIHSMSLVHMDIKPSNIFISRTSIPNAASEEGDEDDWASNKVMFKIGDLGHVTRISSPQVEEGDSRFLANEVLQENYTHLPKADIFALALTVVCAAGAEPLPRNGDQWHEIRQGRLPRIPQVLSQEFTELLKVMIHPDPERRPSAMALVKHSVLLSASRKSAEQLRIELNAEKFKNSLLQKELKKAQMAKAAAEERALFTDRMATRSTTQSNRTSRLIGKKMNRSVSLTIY

Compound C=CCn1c(=O)c2cnc(Nc3ccc(N4CCC5(CCN(C)CC5)CC4)cc3)nc2n1-c1cccc(C(=O)N(C)C)n1 [Embodiment 15, 6-(2-allyl-6-((4-(9-methyl-3,9-diazaspiro[5.5]undecan-3-yl)phenyl)amino)-3-oxo-2,3-dihydro-1H-pyrazolo[3,4-d]pyrimidin-1-yl)-N,N-dimethylpicolinamide] has an IC50 (Wee1) of 31.5 nM, a clearance ([1]; read-out: Clearance rate) of 57.1 mL/min/kg and an AUC ([1]; read-out: Concentration integral AUC) of 1.73 µM·h. For the same compound, the half-life ([1]; read-out: Half-life T1/2 (converted)) was 1.7 h and the bioavailability ([1]; read-out: bioavailability F) was 35.3%.

C=CCn1c(=O)c2cnc(Nc3ccc(N4CCC5(CCN(C(C)=O)CC5)CC4)cc3)nc2n1-c1cccc(C(C)(C)O)n1 [Embodiment 30, 6-((4-(9-acetyl-3,9-diazaspiro[5.5]undecan-3-yl)phenyl)amino)-2-allyl-1-(6-(2-hydroxypropan-2-yl)pyridin-2-yl)-1H-pyrazolo[3,4-d]pyrimidin-3(2H)-one] showed an IC50 (Wee1) of 58.8 nM, an AUC(0-t) ([2]; Brain) of 2.12 µM·h and a Cmax ([2]; Brain) of 0.959 µM. For the same compound, the Tmax ([2]; Brain) was 0.5 h, the AUC(0-t) ([2]; Colon) was 402 µM·h and the Cmax ([2]; Colon) was 135 µM. For the same compound, the Tmax ([2]; Colon) was 0.5 h, the AUC(0-t) ([2]; liver) was 257 µM·h and the Cmax ([2]; liver) was 67.7 µM. For the same compound, the Tmax ([2]; liver) was 2 h, the AUC(0-t) ([2]; lung) was 74.7 µM·h and the Cmax ([2]; lung) was 14.6 µM. For the same compound, the Tmax ([2]; lung) was 2 h, the AUC(0-t) ([2]; pancreas) was 253 µM·h and the Cmax ([2]; pancreas) was 49.3 µM. It also gave a Tmax ([2]; pancreas) of 2 h, an AUC(0-t) ([2]; plasma) of 14.2 µM·h and a Cmax ([2]; plasma) of 4.27 µM. The Tmax ([2]; plasma) was 2 h, the AUC(0-t) ([2]; tumer (tumor)) was 37.3 µM·h and the Cmax ([2]; tumer (tumor)) was 5.42 µM. It also gave a Tmax ([2]; tumer (tumor)) of 8 h.

Work on C=CCn1c(=O)c2cnc(Nc3ccc(N4CCC5(CCN(C)CC5)CC4)cc3)nc2n1-c1cccc(OC)n1 [Embodiment 47, 2-allyl-1-(6-methoxypyridin-2-yl)-6-((4-(9-methyl-3,9-diazaspiro[5.5]undecan-3-yl)phenyl)amino)-1H-pyrazolo[3,4-d]pyrimidin-3(2H)-one] yielded an IC50 (Wee1) of 3 nM.

For C=CCn1c(=O)c2cnc(Nc3ccc(N4CCC5(CCN(C)CC5)CC4)cc3)nc2n1-c1cccc(OC(C)C)n1 [Embodiment 48, 2-allyl-1-(6-isopropoxypyridin-2-yl)-6-((4-(9-methyl-3,9-diazaspiro[5.5]undecan-3-yl)phenyl)amino)-1H-pyrazolo[3,4-d]pyrimidin-3(2H)-one], the IC50 (Wee1) was 6.3 nM.

C=CCn1c(=O)c2cnc(Nc3ccc(N4CCC5(CCN(C)CC5)CC4)cc3)nc2n1-c1cccc(C(C)(F)F)n1 [Embodiment 49, 2-allyl-1-(6-(1,1-difluoroethyl)pyridin-2-yl)-6-((4-(9-methyl-3,9-diazaspiro[5.5]undecan-3-yl)phenyl)amino)-1H-pyrazolo[3,4-d]pyrimidin-3(2H)-one] gave an IC50 (Wee1) of 3.1 nM.

C=CCn1c(=O)c2cnc(Nc3ccc(N4CCC5(CCN(C)CC5)CC4)cc3)nc2n1-c1cccc(OC2CC2)n1 [Embodiment 50, 2-allyl-1-(6-cyclopropoxypyridin-2-yl)-6-((4-(9-methyl-3,9-diazaspiro[5.5]undecan-3-yl)phenyl)amino)-1H-pyrazolo[3,4-d]pyrimidin-3(2H)-one] showed an IC50 (Wee1) of 2.5 nM.

C=CCn1c(=O)c2cnc(Nc3ccc(N4CCC5(CCN(C)CC5)CC4)cc3)nc2n1-c1cccc(OCC)n1 [Embodiment 51, 2-allyl-1-(6-ethoxypyridin-2-yl)-6-((4-(9-methyl-3,9-diazaspiro[5.5]undecan-3-yl)phenyl)amino)-1H-pyrazolo[3,4-d]pyrimidin-3(2H)-one] showed an IC50 (Wee1) of 2.8 nM.

With C=CCn1c(=O)c2cnc(Nc3ccc(N4CCC5(CCN(C)CC5)CC4)cc3)nc2n1-c1cccc(O[C@@H]2CCOC2)n1 [Embodiment 52, (R)-2-allyl-6-((4(9-methyl-3,9-diazaspiro[5.5]undecan-3-yl)phenyl)amino)-1-(6-((tetrahydrofuran-3-yl)oxy)pyridin-2-yl)-1H-pyrazolo[3,4-d]pyrimidin-3(2H)-one] the IC50 (Wee1) was 71 nM.

C=CCn1c(=O)c2cnc(Nc3ccc(N4CCC5(CCN(C)CC5)CC4)cc3)nc2n1-c1cccc(OC2COC2)n1 [Embodiment 53, 2-allyl-6-((4(9-methyl-3,9-diazaspiro[5.5]undecan-3-yl)phenyl)amino)-1-(6-(oxetan-3-yloxy)pyridin-2-yl)-1H-pyrazolo[3,4-d]pyrimidin-3(2H)-one] showed an IC50 (Wee1) of 63 nM.

With C=CCn1c(=O)c2cnc(Nc3ccc(N4CCC5(CCN(C)CC5)CC4)cc3)nc2n1-c1cccc(OC2CCC2)n1 [Embodiment 54, 2-allyl-1-(6-cyclobutoxypyridin-2-yl)-6-((4-(9-methyl-3,9-diazaspiro[5.5]undecan-3-yl)phenyl)amino)-1H-pyrazolo[3,4-d]pyrimidin-3(2H)-one] the IC50 (Wee1) was 57 nM.

C=CCn1c(=O)c2cnc(Nc3ccc(N4CCC5(CCN(C)CC5)CC4)cc3)nc2n1-c1cccc(O[C@H]2CCOC2)n1 [Embodiment 55, (S)-2-allyl-6-((4(9-methyl-3,9-diazaspiro[5.5]undecan-3-yl)phenyl)amino)-1-(6-((tetrahydrofuran-3-yl)oxy)pyridin-2-yl)-1H-pyrazolo[3,4-d]pyrimidin-3(2H)-one] gave an IC50 (Wee1) of 90 nM.

C=CCn1c(=O)c2cnc(Nc3ccc(N4CCC5(CCN(C)CC5)CC4)cc3)nc2n1-c1cccc(N2CCN(C)C2=O)n1 [Embodiment 56] showed an IC50 (Wee1) of 74 nM.

For C=CCn1c(=O)c2cnc(Nc3ccc(N4CCC5(CCN(C)CC5)CC4)cc3)nc2n1-c1cccc(N2CCOC2=O)n1 [Embodiment 57, 3-(6-(2-allyl-6((4-(9-methyl-3,9-diazaspiro[5.5]undecan-3-yl)phenyl)amino)-3-oxo-2,3-dihydro-1H-pyrazolo[3,4-d]pyrimidin-1-yl)pyridin-2-yl)oxazolidin-2one], the IC50 (Wee1) was 47 nM.

With C=CCn1c(=O)c2cnc(Nc3ccc(N4CCC5(CCN(C)CC5)CC4)cc3)nc2n1-c1cccc(N2CCNC2=O)n1 [Embodiment 58, 2-allyl-6-((4(9-methyl-3,9-diazaspiro[5.5]undecan-3-yl)phenyl)amino)-1-(6-(2-oxo-1-imidazolidinyl)pyridin-2-yl)-1H-pyrazolo[3,4-d]pyrimidin-3(2H)-one] the IC50 (Wee1) was 73 nM.

In the case of C=CCn1c(=O)c2cnc(Nc3ccc(N4CCC5(CCN(C)CC5)CC4)cc3)nc2n1-c1cccc(P(C)(C)=O)n1 [Embodiment 59, 2-allyl-1-(6-(dimethylphosphory)pyridin-2-yl)-6-((4-(9-methyl-3,9-diazaspiro[5.5]undecan-3-yl)phenyl)amino)-1H-pyrazolo[3,4-d]pyrimidin-3(2H)-one], the IC50 (Wee1) is reported as 22.6 nM.

Compound C=CCn1c(=O)c2cnc(Nc3ccc(N4CCC5(CCN(CCF)CC5)CC4)cc3)nc2n1-c1cccc(C(C)(C)O)n1 [Embodiment 60] has an IC50 (Wee1) of 14.8 nM.

C=CCn1c(=O)c2cnc(Nc3ccc(N4CCC5(CCN(CC(F)F)CC5)CC4)cc3)nc2n1-c1cccc(C(C)(C)O)n1 [Embodiment 61] gave an IC50 (Wee1) of 15.7 nM.

With C=CCn1c(=O)c2cnc(Nc3ccc(N4CCC5(CCN(CCC#N)CC5)CC4)cc3)nc2n1-c1cccc(C(C)(C)O)n1 [Embodiment 62, 3-(9-(4((2-allyl-1(6-(2-hydroxypropan-2-yl)pyridin-2-yl)-3-oxo-2,3-dihydro-1H-pyrazolo[3,4-d]pyrimidin-6-yl)amino)phenyl)-3,9-diazaspiro[5.5]undecan-3-yl)propionitrile] the IC50 (Wee1) was 36.1 nM.
